What was measured:
[1] = test system: Petroselinum crispum cells; assay: Oxygen transfer rate (RAMOS) in suspension cells treated with substance and then with the elicitor Pep13; format: cell-based; settings: 200 μM 72 hours after inoculation; for oxygen transfer rate in comparison to untreated cells and to cells only treated with Pep13 (specificity): 1 nM Pep13 96 hours after inoculation, FIG. 2
Protocol: (§1) 12.5 ml of a suspension of Petroselinum crispurn cells were inoculated in 250 ml shaking flasks containing 37.5 ml of modified Gamborg B5 medium and cultured at a temperature of 25° C. at a shaking frequency of 180 U/min and a shaking diameter of 5 cm in a RAMOS device (HiTec Zang, Herzogenrath). During the culture the oxygen partial pressure of the gas phase in the head space of the flask was measured and the oxygen transfer rate was calculated therefrom.
In yet another experiment, the cells were treated with 200 μM salicylic acid 72 hours after inoculation and with Pep13 96 hours after inoculation.
In parallel experiments, the cells were either treated with 200 μM salicylic acid, 200 μM 4-chlorsalicylic acid or with 200 μM 3-hydroxy benzoic acid 72 hours after inoculation and then in all experiments 1 nM Pep13 was added 96 hours after inoculation.

[2] = test system: Petroselinum crispum cells; assay: Oxygen transfer rate (RAMOS) in suspension cells after treatment with a defense priming substance or elicitor alone; format: cell-based; settings: 200 μM added 72 hours after inoculation; FIG. 1b
Text: In the determination of the respiration activity with RAMOS, a measuring cycle is continuously repeated during fermentation. This measuring cycle comprises a measuring phase and a rinsing phase. During the rinsing phase, air is flushed through the measuring flask at a specific flow rate. At the beginning of the measuring phase, inlet and outlet valves of the measuring flask are closed. Respiration of the cells leads to a decrease in the oxygen partial pressure and to an increase in the carbon dioxide partial pressure in the gas headspace of the measuring flask. These partial pressures are monitored by an oxygen sensor and a differential pressure sensor. In addition, a carbon dioxide sensor may be used. Assuming linear changes in the measuring phase, a computer calculates the oxygen transfer rate and the carbon dioxide transfer rate according to the formulas provided above. […]
as §1, with “therefrom. […]” for “therefrom.”

SMILES | oxygen transfer rate in comparison to untreated cells and to cells only treated with Pep13 (specificity) [1] | duration of the increase in oxygen transfer rate [2] | oxygen transfer rate in comparison to the untreated cells [2] | oxygen transfer rate compared with treatment with Pep13 alone ([1]; Pep13 96 hours after inoculation, FIG. 1d)
O=C(O)c1cccc(O)c1 [3-hydroxy benzoic acid] | same increase in the oxygen transfer rate as the addition of Pep13 alone |  |  | 
O=C(O)c1ccc(Cl)cc1O [4-chlorsalicylic acid] | increase in the oxygen transfer rate |  |  | 
O=C(O)c1ccccc1O [salicylic acid] | increase in the oxygen transfer rate | about 48 hours | increase in the oxygen transfer rate | stronger increase in the oxygen transfer rate than the treatment with Pep13 alone
